# Measurements: publication PMC5218480 (PLoS ONE, 2017)
# Test system: MV-4-11 cells
# Test: Gene expression microarray analysis (Affymetrix PrimeView) and GSEA
# Assay type: cell-based, human
# Set-up: RFU PODN (11730768_x_at) / Fold change /veh PODN (11730768_x_at) / RFU LINC00158 (11744669_a_at) / Fold change /veh LINC00158 (11744669_a_at) / RFU DUSP10 (11751237_a_at) / Fold change /veh DUSP10 (11751237_a_at) / RFU ID3 (11757404_x_at) / Fold change /veh ID3 (11757404_x_at) / RFU PLEKHG5 (11737974_s_at) / Fold change /veh PLEKHG5 (11737974_s_at) / RFU LRRC4B (11730491_at) / Fold change /veh LRRC4B (11730491_at) / RFU GIMAP4 (11747438_a_at) / Fold change /veh GIMAP4 (11747438_a_at) / RFU KRT8 (11758183_x_at) / Fold change /veh KRT8 (11758183_x_at) / RFU CNN1 (11734310_a_at) / Fold change /veh CNN1 (11734310_a_at) / RFU VPS37D (11726825_at) / Fold change /veh VPS37D (11726825_at) / RFU C10orf10 (11716522_x_at) / Fold change /veh C10orf10 (11716522_x_at) / RFU KIR2DL2 /// KIR2DL4 /// KIR2DL5A /// KIR2DL5B /// KIR2DS1 /// KIR2DS2 /// KIR2DS3 /// KIR2DS4 /// KIR3DL3 /// KIR3DL3 /// KIR3DS1 (11738374_at) / Fold change /veh KIR2DL2 /// KIR2DL4 /// KIR2DL5A /// KIR2DL5B /// KIR2DS1 /// KIR2DS2 /// KIR2DS3 /// KIR2DS4 /// KIR3DL3 /// KIR3DL3 /// KIR3DS1 (11738374_at) / RFU C1QL1 (11718748_at) / Fold change /veh C1QL1 (11718748_at) / RFU TMPRSS4 (11747572_a_at) / Fold change /veh TMPRSS4 (11747572_a_at) / RFU HAMP (11756126_x_at) / Fold change /veh HAMP (11756126_x_at) / RFU RNFT2 (11725882_a_at) / Fold change /veh RNFT2 (11725882_a_at) / RFU NR4A2 (11747474_a_at) / Fold change /veh NR4A2 (11747474_a_at) / RFU ABCC12 (11746883_a_at) / Fold change /veh ABCC12 (11746883_a_at) / RFU TMEM136 (11760407_x_at) / Fold change /veh TMEM136 (11760407_x_at) / RFU CLDN22 /// WWC2 (11732394_at) / Fold change /veh CLDN22 /// WWC2 (11732394_at) / RFU HLA-DPB1 (11760878_x_at) / Fold change /veh HLA-DPB1 (11760878_x_at) / RFU SPINT1 (11716480_a_at) / Fold change /veh SPINT1 (11716480_a_at) / RFU GAP43 (11754022_s_at) / Fold change /veh GAP43 (11754022_s_at) / RFU A4GNT (11735810_at) / Fold change /veh A4GNT (11735810_at) / RFU PRB3 (11715151_x_at) / Fold change /veh PRB3 (11715151_x_at) / RFU TUBB4B (11761932_at) / Fold change /veh TUBB4B (11761932_at) / RFU CAPN14 (11732068_a_at) / Fold change /veh CAPN14 (11732068_a_at) / RFU TMCC2 (11721928_a_at) / Fold change /veh TMCC2 (11721928_a_at) / RFU IRGQ (11745062_a_at) / Fold change /veh IRGQ (11745062_a_at) / RFU FAM174B (11720279_a_at) / Fold change /veh FAM174B (11720279_a_at) / RFU TMPRSS4 (11748680_a_at) / Fold change /veh TMPRSS4 (11748680_a_at) / RFU FAM212B (11763350_a_at) / Fold change /veh FAM212B (11763350_a_at) / RFU PLEKHG5 (11743358_a_at) / Fold change /veh PLEKHG5 (11743358_a_at) / RFU ZSCAN30 (11745921_a_at) / Fold change /veh ZSCAN30 (11745921_a_at) / RFU CMKLR1 (11741424_a_at) / Fold change /veh CMKLR1 (11741424_a_at) / RFU LOC101060620 /// MAPK8IP1 (11723275_at) / Fold change /veh LOC101060620 /// MAPK8IP1 (11723275_at) / RFU SPTSSB (11747773_x_at) / Fold change /veh SPTSSB (11747773_x_at) / RFU PRSS12 (11739890_at) / Fold change /veh PRSS12 (11739890_at) / RFU BIN1 (11741810_x_at) / Fold change /veh BIN1 (11741810_x_at) / RFU WNT11 (11732464_a_at) / Fold change /veh WNT11 (11732464_a_at) / RFU C10orf10 (11716521_a_at) / Fold change /veh C10orf10 (11716521_a_at) / RFU C5orf56 (11738089_at) / Fold change /veh C5orf56 (11738089_at) / RFU CYB561 (11721691_x_at) / Fold change /veh CYB561 (11721691_x_at) / RFU ANKRD19P (11752326_a_at) / Fold change /veh ANKRD19P (11752326_a_at) / RFU OR2T12 /// OR2T33 /// OR2T8 (11738714_s_at) / Fold change /veh OR2T12 /// OR2T33 /// OR2T8 (11738714_s_at) / RFU VCAN (11748164_a_at) / Fold change /veh VCAN (11748164_a_at) / RFU JSRP1 (11732532_at) / Fold change /veh JSRP1 (11732532_at) / RFU KRTAP10-11 (11738290_x_at) / Fold change /veh KRTAP10-11 (11738290_x_at) / RFU MYO3A (11730013_a_at) / Fold change /veh MYO3A (11730013_a_at) / RFU EBF3 (11725865_a_at) / Fold change /veh EBF3 (11725865_a_at) / RFU CAMK2N1 (11719241_x_at) / Fold change /veh CAMK2N1 (11719241_x_at) / RFU C5orf56 (11738088_a_at) / Fold change /veh C5orf56 (11738088_a_at) / RFU OLFML3 (11715873_a_at) / Fold change /veh OLFML3 (11715873_a_at) / RFU LOC100653217 /// NTM (11731650_a_at) / Fold change /veh LOC100653217 /// NTM (11731650_a_at) / RFU MAPK11 (11762145_a_at) / Fold change /veh MAPK11 (11762145_a_at) / RFU FIZ1 (11724087_x_at) / Fold change /veh FIZ1 (11724087_x_at) / RFU OASL (11726364_x_at) / Fold change /veh OASL (11726364_x_at) / RFU SOX15 (11748057_x_at) / Fold change /veh SOX15 (11748057_x_at) / RFU CD79A (11719716_a_at) / Fold change /veh CD79A (11719716_a_at) / RFU HIST1H1D (11736915_at) / Fold change /veh HIST1H1D (11736915_at) / RFU CASKIN2 (11723855_a_at) / Fold change /veh CASKIN2 (11723855_a_at) / RFU LOC730098 (11760151_x_at) / Fold change /veh LOC730098 (11760151_x_at) / RFU OR4N2 (11742367_at) / Fold change /veh OR4N2 (11742367_at) / RFU PRRT2 (11749266_a_at) / Fold change /veh PRRT2 (11749266_a_at) / RFU SNX32 (11753110_a_at) / Fold change /veh SNX32 (11753110_a_at) / RFU CDHR5 (11726645_a_at) / Fold change /veh CDHR5 (11726645_a_at) / RFU RCAN1 (11760418_a_at) / Fold change /veh RCAN1 (11760418_a_at) / RFU FAM167A (11723789_a_at) / Fold change /veh FAM167A (11723789_a_at) / RFU FAM26E (11764081_at) / Fold change /veh FAM26E (11764081_at) / RFU ISYNA1 (11749810_s_at) / Fold change /veh ISYNA1 (11749810_s_at) / RFU ACY1 (11761880_at) / Fold change /veh ACY1 (11761880_at) / RFU 11764098_at / Fold change /veh 11764098_at / RFU SAMD14 (11745864_x_at) / Fold change /veh SAMD14 (11745864_x_at) / RFU NPB (11741838_a_at) / Fold change /veh NPB (11741838_a_at) / RFU TMPRSS6 (11731388_a_at) / Fold change /veh TMPRSS6 (11731388_a_at) / RFU KRTAP10-2 (11738614_at) / Fold change /veh KRTAP10-2 (11738614_at) / RFU ARHGAP8 /// PRR5-ARHGAP8 (11727945_x_at) / Fold change /veh ARHGAP8 /// PRR5-ARHGAP8 (11727945_x_at) / RFU KRTAP5-7 /// NADSYN1 (11734609_at) / Fold change /veh KRTAP5-7 /// NADSYN1 (11734609_at) / RFU RASL12 (11751679_a_at) / Fold change /veh RASL12 (11751679_a_at) / RFU CDKN2B (11736163_a_at) / Fold change /veh CDKN2B (11736163_a_at) / RFU PRF1 (11729649_at) / Fold change /veh PRF1 (11729649_at) / RFU, ZNF638 /// ZNF638-IT1 / Fold change vs veh, ZNF638 /// ZNF638-IT1 / RFU, PANK3 / Fold change vs veh, PANK3 / RFU, SH3YL1 / Fold change vs veh, SH3YL1 / RFU, ZEB2 / Fold change vs veh, ZEB2 / RFU, NRIP1 / Fold change vs veh, NRIP1 / RFU, PTTG1IP / Fold change vs veh, PTTG1IP / RFU, CAPN2 / Fold change vs veh, CAPN2 / RFU, MED14 / Fold change vs veh, MED14 / RFU, SNORA58 / Fold change vs veh, SNORA58 / RFU, C1orf63 / Fold change vs veh, C1orf63 / RFU, LRRFIP1 / Fold change vs veh, LRRFIP1 / RFU, NDUFAF7 / Fold change vs veh, NDUFAF7 / RFU, SLC12A2 / Fold change vs veh, SLC12A2 / RFU, IBTK / Fold change vs veh, IBTK / RFU, ESF1 / Fold change vs veh, ESF1 / Fold change vs veh, TMEM50B / RFU, TAOK1 / Fold change vs veh, TAOK1 / RFU, ACBD3 / Fold change vs veh, ACBD3 / RFU, TMA16 / Fold change vs veh, TMA16 / RFU, RWDD3 / Fold change vs veh, RWDD3 / RFU, BCAT1 / Fold change vs veh, BCAT1 / RFU, EDEM3 / Fold change vs veh, EDEM3 / RFU, TMEM33 / Fold change vs veh, TMEM33 / RFU, WDR75 / Fold change vs veh, WDR75 / RFU, AHCTF1 / Fold change vs veh, AHCTF1 / RFU, TFRC / Fold change vs veh, TFRC / RFU, ZDHHC17 / Fold change vs veh, ZDHHC17 / RFU, NOM1 / Fold change vs veh, NOM1 / RFU, ARL8B / Fold change vs veh, ARL8B / RFU, ZBTB11 / Fold change vs veh, ZBTB11 / RFU, TAMM41 / Fold change vs veh, TAMM41 / RFU, KIAA1704 /// LOC100996395 / Fold change vs veh, KIAA1704 /// LOC100996395 / RFU, ING1 / Fold change vs veh, ING1 / RFU, TRMT61B / Fold change vs veh, TRMT61B / RFU, FUBP3 / Fold change vs veh, FUBP3 / RFU, TP53 / Fold change vs veh, TP53 / RFU, TNKS2 / Fold change vs veh, TNKS2 / RFU, ZFP14 / Fold change vs veh, ZFP14 / RFU, ACTR2 / Fold change vs veh, ACTR2 / RFU, PPP3R1 / Fold change vs veh, PPP3R1 / RFU, PIK3R1 / Fold change vs veh, PIK3R1 / RFU, HNRNPA1 / Fold change vs veh, HNRNPA1 / RFU, RNF170 / Fold change vs veh, RNF170 / RFU, ZNF28 / Fold change vs veh, ZNF28 / RFU, RNGTT / Fold change vs veh, RNGTT / RFU, OGT / Fold change vs veh, OGT / RFU, BRD1 / Fold change vs veh, BRD1 / RFU, MARS / Fold change vs veh, MARS / RFU, ZNF655 / Fold change vs veh, ZNF655 / RFU, FAHD1 / Fold change vs veh, FAHD1 / RFU, BDP1 / Fold change vs veh, BDP1 / RFU, LRRCC1 / Fold change vs veh, LRRCC1 / RFU, ARID1A / Fold change vs veh, ARID1A / RFU, ZNF146 / Fold change vs veh, ZNF146 / RFU, ZNF330 / Fold change vs veh, ZNF330 / RFU, GPN3 / Fold change vs veh, GPN3 / RFU, C9orf123 / Fold change vs veh, C9orf123 / RFU, N4BP2L2 / Fold change vs veh, N4BP2L2 / RFU, ARFIP1 / Fold change vs veh, ARFIP1 / RFU, FAM179B / Fold change vs veh, FAM179B / RFU, BCL10 / Fold change vs veh, BCL10 / RFU, UHRF1BP1L / Fold change vs veh, UHRF1BP1L / RFU, BET1 / Fold change vs veh, BET1 / RFU, CNOT2 / Fold change vs veh, CNOT2 / RFU, ZNF268 / Fold change vs veh, ZNF268 / Fold change vs veh, ZNF507 / RFU, DGCR2 / Fold change vs veh, DGCR2 / RFU, WDSUB1 / Fold change vs veh, WDSUB1 / Fold change vs veh, HSP90B1 /// MIR3652 / RFU, ADSS / Fold change vs veh, ADSS / RFU, GK / Fold change vs veh, GK / RFU, ZNF148 / Fold change vs veh, ZNF148 / RFU, TAF9 / Fold change vs veh, TAF9 / RFU, SLC1A5 / Fold change vs veh, SLC1A5 / RFU, SLMO2 / Fold change vs veh, SLMO2 / RFU, ABCC4 / Fold change vs veh, ABCC4 / RFU, LOC101060439 /// RAP1B / Fold change vs veh, LOC101060439 /// RAP1B / RFU, RFX7 / Fold change vs veh, RFX7 / RFU, GTPBP10 / Fold change vs veh, GTPBP10 / RFU, CNEP1R1 / Fold change vs veh, CNEP1R1 / RFU, BIVM-ERCC5 /// ERCC5 / Fold change vs veh, BIVM-ERCC5 /// ERCC5 / RFU, ILF3 / Fold change vs veh, ILF3 / RFU 11762660_at / Fold change /veh 11762660_at / RFU VCAN (11757783_s_at) / Fold change /veh VCAN (11757783_s_at) / RFU DDX43 (11728927_at) / Fold change /veh DDX43 (11728927_at) / RFU KRT8 (11758188_x_at) / Fold change /veh KRT8 (11758188_x_at) / RFU NKD1 (11759106_at) / Fold change /veh NKD1 (11759106_at) / RFU SRD5A1 (11742802_a_at) / Fold change /veh SRD5A1 (11742802_a_at) / RFU TPSAB1 /// TPSB2 (11721975_s_at) / Fold change /veh TPSAB1 /// TPSB2 (11721975_s_at) / RFU GSTM3 (11746129_a_at) / Fold change /veh GSTM3 (11746129_a_at) / RFU IL23R (11737362_x_at) / Fold change /veh IL23R (11737362_x_at) / RFU TMEM51 (11727254_a_at) / Fold change /veh TMEM51 (11727254_a_at) / RFU PIWIL2 (11732686_x_at) / Fold change /veh PIWIL2 (11732686_x_at) / RFU ORM1 (11744905_x_at) / Fold change /veh ORM1 (11744905_x_at) / RFU CCDC152 (11743942_at) / Fold change /veh CCDC152 (11743942_at) / RFU ECM1 (11717891_a_at) / Fold change /veh ECM1 (11717891_a_at) / RFU IL23R (11748794_a_at) / Fold change /veh IL23R (11748794_a_at) / RFU TNFAIP8L3 (11732012_x_at) / Fold change /veh TNFAIP8L3 (11732012_x_at) / RFU MBOAT4 (11741988_at) / Fold change /veh MBOAT4 (11741988_at) / RFU 11764193_at / Fold change /veh 11764193_at / RFU TMEM53 (11763286_at) / Fold change /veh TMEM53 (11763286_at) / RFU MAGEB2 (11727129_at) / Fold change /veh MAGEB2 (11727129_at) / RFU TMEM200A (11744735_a_at) / Fold change /veh TMEM200A (11744735_a_at) / RFU CCDC152 (11751479_a_at) / Fold change /veh CCDC152 (11751479_a_at) / RFU FAM211A (11726209_a_at) / Fold change /veh FAM211A (11726209_a_at) / RFU RGS16 (11746705_a_at) / Fold change /veh RGS16 (11746705_a_at) / RFU VCAN (11755009_s_at) / Fold change /veh VCAN (11755009_s_at) / RFU RHOB (11743442_s_at) / Fold change /veh RHOB (11743442_s_at) / RFU RGS16 (11720943_a_at) / Fold change /veh RGS16 (11720943_a_at) / RFU RGS16 (11720944_at) / Fold change /veh RGS16 (11720944_at) / RFU, VPS4B / Fold change vs veh, VPS4B / RFU, CREB1 / Fold change vs veh, CREB1 / RFU, DNAJC13 / Fold change vs veh, DNAJC13 / RFU, GNAQ / Fold change vs veh, GNAQ / RFU, CDK5R1 / Fold change vs veh, CDK5R1 / RFU, ZRANB3 / Fold change vs veh, ZRANB3 / RFU, CUL4A / Fold change vs veh, CUL4A / RFU, CCNY / Fold change vs veh, CCNY / RFU, UFL1 / Fold change vs veh, UFL1 / RFU, COG3 / Fold change vs veh, COG3 / RFU, DIAPH2 / Fold change vs veh, DIAPH2 / RFU, SKA2 / Fold change vs veh, SKA2 / RFU, AFF3 / Fold change vs veh, AFF3 / RFU, LMF1 / Fold change vs veh, LMF1 / RFU, IPO11 / Fold change vs veh, IPO11 / RFU, DFFB / Fold change vs veh, DFFB / RFU, FOXP1 / Fold change vs veh, FOXP1 / RFU, CARD8 / Fold change vs veh, CARD8 / RFU, STRN3 / Fold change vs veh, STRN3 / RFU, ADK / Fold change vs veh, ADK / RFU, RASSF2 / Fold change vs veh, RASSF2 / RFU, WIPF1 / Fold change vs veh, WIPF1 / RFU, LARP1B / Fold change vs veh, LARP1B / RFU, RASA1 / Fold change vs veh, RASA1 / RFU, RB1 / Fold change vs veh, RB1 / RFU, PPFIA1 / Fold change vs veh, PPFIA1 / RFU, MAT2A / Fold change vs veh, MAT2A / RFU, CCT5 / Fold change vs veh, CCT5 / RFU, WDR92 / Fold change vs veh, WDR92 / RFU, CUX1 / Fold change vs veh, CUX1 / RFU, TTC7A / Fold change vs veh, TTC7A / RFU, TMEM135 / Fold change vs veh, TMEM135 / RFU, DEPTOR / Fold change vs veh, DEPTOR / RFU, CPM / Fold change vs veh, CPM / RFU, DNAJB6 / Fold change vs veh, DNAJB6 / RFU, CACNA2D3 / Fold change vs veh, CACNA2D3 / RFU, DTX4 / Fold change vs veh, DTX4 / RFU, TFCP2 / Fold change vs veh, TFCP2 / RFU, GMCL1 /// GMCL1P1 / Fold change vs veh, GMCL1 /// GMCL1P1 / RFU, AEBP2 / Fold change vs veh, AEBP2 / RFU, SNHG1 /// SNORD22 /// SNORD25 /// SNORD26 /// SNORD27 /// SNORD28 /// SNORD29 /// SNORD31 / Fold change vs veh, SNHG1 /// SNORD22 /// SNORD25 /// SNORD26 /// SNORD27 /// SNORD28 /// SNORD29 /// SNORD31 / Fold change (Aza/veh), C12orf56 (ProbeSet 11735607_a_at) / Fold change (ACY-1035/veh), C12orf56 (ProbeSet 11735607_a_at) / Fold change (Aza/veh), FGFR1OP (ProbeSet 11751329_s_at) / Fold change (ACY-1035/veh), FGFR1OP (ProbeSet 11751329_s_at) / Fold change (Aza/veh), VPS36 (ProbeSet 11739960_a_at) / Fold change (ACY-1035/veh), VPS36 (ProbeSet 11739960_a_at) / RFU SYPL1 (11715823_x_at) / Fold change /veh SYPL1 (11715823_x_at) / RFU IGFBP7 (11715501_s_at) / Fold change /veh IGFBP7 (11715501_s_at) / RFU REEP3 (11722064_at) / Fold change /veh REEP3 (11722064_at) / RFU IGLL1 (11728026_x_at) / Fold change /veh IGLL1 (11728026_x_at): dose or concentration left out as unconfirmed
# Conditions: ProbeSet 11732433_s_at; LIST B
structure (smiles),measurement,value
Nc1ncn([C@@H]2O[C@H](CO)[C@@H](O)[C@H]2O)c(=O)n1 [azacitidine],"Fold change vs veh, GK",0.93
